This passage reports relative viability results from the supplement of paper PMC10307832.

In one assay the test system is SW 1573. Nature of the assay: relative viability (nuclei count vs DMSO), 5 days (fraction); higher = more cells survive. The settings on record: first compound 2 µM. The method, boiled down: (§1)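 Dosing by pin tool came one day after lung cancer cell lines were seeded in 1536-well plates, using either one drug or a fixed anchor-drug dose plus five library-drug doses (not always all listed) in √10 steps. After 5 days, nuclei were counted on 4× images. Relative viability is treated-well nuclei count divided by vehicle-well nuclei count, and values are medians of duplicate plates.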
Turning to `COCC1(CO)C(=O)C2CCN1CC2` (centres undefined) [PRIMA-1MET] + Nc1nc2[nH]cc(CCc3ccc(C(=O)N[C@@H](CCC(=O)O)C(=O)O)cc3)c2c(=O)[nH]1 [Pemetrexed] (partner 0.2 µM), the relative viability turned out to be 0.752.
The same measure, in the same setting: the result for `COCC1(CO)C(=O)C2CCN1CC2` (centres undefined) [PRIMA-1MET] + Cc1nc(Nc2ncc(C(=O)Nc3c(C)cccc3Cl)s2)cc(N2CCN(CCO)CC2)n1 [Dasatinib] (partner 0.075 µM) reads 0.356.

The same assay, now with this note: first compound 6.325 µM.
As for `COCC1(CO)C(=O)C2CCN1CC2` (centres undefined) [PRIMA-1MET] + CCNC(=O)c1noc(-c2cc(C(C)C)c(O)cc2O)c1-c1ccc(CN2CCOCC2)cc1 [Luminespib] (partner 0.01 µM), the relative viability is 0.0379.
On the same count and under the same terms, with `COCC1(CO)C(=O)C2CCN1CC2` (centres undefined) [PRIMA-1MET] + COc1cccc2cc(-c3nc([C@H]4CC[C@H](C(=O)O)CC4)n4ncnc(N)c34)[nH]c12 [OSI-027] (partner 0.5 µM) the figure was 0.0316; with `COCC1(CO)C(=O)C2CCN1CC2` (centres undefined) [PRIMA-1MET] + N=C(N)NC(=N)NCCc1ccccc1 [Phenformin] (partner 250 µM), 0.22; with `COCC1(CO)C(=O)C2CCN1CC2` (centres undefined) [PRIMA-1MET] + Nc1nc2[nH]cc(CCc3ccc(C(=O)N[C@@H](CCC(=O)O)C(=O)O)cc3)c2c(=O)[nH]1 [Pemetrexed] (partner 0.2 µM), 0.0377.
In the case of `COCC1(CO)C(=O)C2CCN1CC2` (centres undefined) [PRIMA-1MET] + Cc1nc(Nc2ncc(C(=O)Nc3c(C)cccc3Cl)s2)cc(N2CCN(CCO)CC2)n1 [Dasatinib] (partner 0.075 µM), the relative viability turned out to be 0.0331.

Still in this assay, the particulars now being: first compound 20 µM.
Turning to `COCC1(CO)C(=O)C2CCN1CC2` (centres undefined) [PRIMA-1MET] + CCNC(=O)c1noc(-c2cc(C(C)C)c(O)cc2O)c1-c1ccc(CN2CCOCC2)cc1 [Luminespib] (partner 0.01 µM), the relative viability came out at 0.0227.
On the same count and under the same terms, with `COCC1(CO)C(=O)C2CCN1CC2` (centres undefined) [PRIMA-1MET] + COc1cccc2cc(-c3nc([C@H]4CC[C@H](C(=O)O)CC4)n4ncnc(N)c34)[nH]c12 [OSI-027] (partner 0.5 µM) the figure was 0.032.
Still for that read-out and setting: the result for `COCC1(CO)C(=O)C2CCN1CC2` (centres undefined) [PRIMA-1MET] + N=C(N)NC(=N)NCCc1ccccc1 [Phenformin] (partner 250 µM) reads 0.0256; that for `COCC1(CO)C(=O)C2CCN1CC2` (centres undefined) [PRIMA-1MET] + Nc1nc2[nH]cc(CCc3ccc(C(=O)N[C@@H](CCC(=O)O)C(=O)O)cc3)c2c(=O)[nH]1 [Pemetrexed] (partner 0.2 µM), 0.0278.
Take `COCC1(CO)C(=O)C2CCN1CC2` (centres undefined) [PRIMA-1MET] + Cc1nc(Nc2ncc(C(=O)Nc3c(C)cccc3Cl)s2)cc(N2CCN(CCO)CC2)n1 [Dasatinib] (partner 0.075 µM): the relative viability turned out to be 0.0202.

The subject of a further assay is NCI-H1563. The description is as above. The settings on record: first compound 0.2 µM. The method, boiled down:
as §1
`COCC1(CO)C(=O)C2CCN1CC2` (centres undefined) [PRIMA-1MET] + CCNC(=O)c1noc(-c2cc(C(C)C)c(O)cc2O)c1-c1ccc(CN2CCOCC2)cc1 [Luminespib] (partner 0.01 µM) came in with a relative viability of 0.595.
Same read-out and setting: the result for `COCC1(CO)C(=O)C2CCN1CC2` (centres undefined) [PRIMA-1MET] + COc1cccc2cc(-c3nc([C@H]4CC[C@H](C(=O)O)CC4)n4ncnc(N)c34)[nH]c12 [OSI-027] (partner 0.5 µM) reads 0.854; that for `COCC1(CO)C(=O)C2CCN1CC2` (centres undefined) [PRIMA-1MET] + N=C(N)NC(=N)NCCc1ccccc1 [Phenformin] (partner 250 µM), 0.686.
Same read-out and setting: with `COCC1(CO)C(=O)C2CCN1CC2` (centres undefined) [PRIMA-1MET] + Nc1nc2[nH]cc(CCc3ccc(C(=O)N[C@@H](CCC(=O)O)C(=O)O)cc3)c2c(=O)[nH]1 [Pemetrexed] (partner 0.2 µM) the figure was 0.882; with `COCC1(CO)C(=O)C2CCN1CC2` (centres undefined) [PRIMA-1MET] + Cc1nc(Nc2ncc(C(=O)Nc3c(C)cccc3Cl)s2)cc(N2CCN(CCO)CC2)n1 [Dasatinib] (partner 0.075 µM), 0.502.

Still in this assay, the particulars now being: first compound 0.6325 µM.
On to `COCC1(CO)C(=O)C2CCN1CC2` (centres undefined) [PRIMA-1MET] + CCNC(=O)c1noc(-c2cc(C(C)C)c(O)cc2O)c1-c1ccc(CN2CCOCC2)cc1 [Luminespib] (partner 0.01 µM), for which the relative viability amounted to 0.539.
With `COCC1(CO)C(=O)C2CCN1CC2` (centres undefined) [PRIMA-1MET] + COc1cccc2cc(-c3nc([C@H]4CC[C@H](C(=O)O)CC4)n4ncnc(N)c34)[nH]c12 [OSI-027] (partner 0.5 µM), the relative viability turned out to be 0.789.
Still for that read-out and setting: with `COCC1(CO)C(=O)C2CCN1CC2` (centres undefined) [PRIMA-1MET] + N=C(N)NC(=N)NCCc1ccccc1 [Phenformin] (partner 250 µM) the figure was 0.673; with `COCC1(CO)C(=O)C2CCN1CC2` (centres undefined) [PRIMA-1MET] + Nc1nc2[nH]cc(CCc3ccc(C(=O)N[C@@H](CCC(=O)O)C(=O)O)cc3)c2c(=O)[nH]1 [Pemetrexed] (partner 0.2 µM), 0.935.
Regarding `COCC1(CO)C(=O)C2CCN1CC2` (centres undefined) [PRIMA-1MET] + Cc1nc(Nc2ncc(C(=O)Nc3c(C)cccc3Cl)s2)cc(N2CCN(CCO)CC2)n1 [Dasatinib] (partner 0.075 µM), the relative viability is 0.426.

Still in this assay, the particulars now being: first compound 2 µM.
Take `COCC1(CO)C(=O)C2CCN1CC2` (centres undefined) [PRIMA-1MET] + COc1cccc2cc(-c3nc([C@H]4CC[C@H](C(=O)O)CC4)n4ncnc(N)c34)[nH]c12 [OSI-027] (partner 0.5 µM): the relative viability was 0.735.
`COCC1(CO)C(=O)C2CCN1CC2` (centres undefined) [PRIMA-1MET] + N=C(N)NC(=N)NCCc1ccccc1 [Phenformin] (partner 250 µM) displayed a relative viability of 0.668.

Staying with this assay, now noted: first compound 6.325 µM.
Consider `COCC1(CO)C(=O)C2CCN1CC2` (centres undefined) [PRIMA-1MET] + CCNC(=O)c1noc(-c2cc(C(C)C)c(O)cc2O)c1-c1ccc(CN2CCOCC2)cc1 [Luminespib] (partner 0.01 µM), for which the relative viability was found to be 0.529.
In turn, `COCC1(CO)C(=O)C2CCN1CC2` (centres undefined) [PRIMA-1MET] + COc1cccc2cc(-c3nc([C@H]4CC[C@H](C(=O)O)CC4)n4ncnc(N)c34)[nH]c12 [OSI-027] (partner 0.5 µM) came in with a relative viability of 0.744.
As to `COCC1(CO)C(=O)C2CCN1CC2` (centres undefined) [PRIMA-1MET] + N=C(N)NC(=N)NCCc1ccccc1 [Phenformin] (partner 250 µM), the relative viability was 0.719.
Same read-out and setting: the result for `COCC1(CO)C(=O)C2CCN1CC2` (centres undefined) [PRIMA-1MET] + Nc1nc2[nH]cc(CCc3ccc(C(=O)N[C@@H](CCC(=O)O)C(=O)O)cc3)c2c(=O)[nH]1 [Pemetrexed] (partner 0.2 µM) reads 0.77.
On to `COCC1(CO)C(=O)C2CCN1CC2` (centres undefined) [PRIMA-1MET] + Cc1nc(Nc2ncc(C(=O)Nc3c(C)cccc3Cl)s2)cc(N2CCN(CCO)CC2)n1 [Dasatinib] (partner 0.075 µM), for which the relative viability was determined as 0.548.

Staying with this assay, now noted: first compound 20 µM.
`COCC1(CO)C(=O)C2CCN1CC2` (centres undefined) [PRIMA-1MET] + CCNC(=O)c1noc(-c2cc(C(C)C)c(O)cc2O)c1-c1ccc(CN2CCOCC2)cc1 [Luminespib] (partner 0.01 µM) returned a relative viability of 0.147.
The same measure, in the same setting: the result for `COCC1(CO)C(=O)C2CCN1CC2` (centres undefined) [PRIMA-1MET] + COc1cccc2cc(-c3nc([C@H]4CC[C@H](C(=O)O)CC4)n4ncnc(N)c34)[nH]c12 [OSI-027] (partner 0.5 µM) reads 0.327.
On the same count and under the same terms, the result for `COCC1(CO)C(=O)C2CCN1CC2` (centres undefined) [PRIMA-1MET] + N=C(N)NC(=N)NCCc1ccccc1 [Phenformin] (partner 250 µM) reads 0.302; that for `COCC1(CO)C(=O)C2CCN1CC2` (centres undefined) [PRIMA-1MET] + Nc1nc2[nH]cc(CCc3ccc(C(=O)N[C@@H](CCC(=O)O)C(=O)O)cc3)c2c(=O)[nH]1 [Pemetrexed] (partner 0.2 µM), 0.887; that for `COCC1(CO)C(=O)C2CCN1CC2` (centres undefined) [PRIMA-1MET] + Cc1nc(Nc2ncc(C(=O)Nc3c(C)cccc3Cl)s2)cc(N2CCN(CCO)CC2)n1 [Dasatinib] (partner 0.075 µM), 0.422.
